From US20260022114A1, “N-(5-SUBSTITUTED-[(1,3,4-THIADIAZOLYL) OR (1,3-THIAZOLYL)](SUBSTITUTED)CARBOXAMIDE COMPOUNDS, PHARMACEUTICAL COMPOSITIONS, AND METHODS OF PREPARING THE AMIDE COMPOUNDS AND OF THEIR USE” (Repare Therapeutics Inc., priority 2022, published 2026)

Molecular target: PolQ ATPase enzyme (1-894) (Homo sapiens (Human), UniProt O75417)
Assay: Polθ ATPase enzymatic assay (0.5 nM enzyme concentration), ADP-Glo
Type: biochemical
Details: 0.5 nM PolQ ATPase enzyme (1-894); average IC50
Method: PolQ ATPase enzyme (1-894) at 0.5 nM is incubated with a 10-point concentration response of inhibitors for 15 min at rt in the following buffer: 50 mM Tris Cl pH 7.5, 10% glycerol, 5 mM DTT, 10 mM MgCl2, 0.1 mg/ml BSA. Following pre-incubation with inhibitors, DNA (Fork C) at 20 nM and ATP at 100 μM are added to start the reaction. Enzymatic reaction proceeds at rt for 180 min. ATP consumption is measured using the ADP-Glo assay from Promega. Luminescence is read on the Envision and IC50 are determined using the variable slope 4-parameters equation.
Oligos are annealed by heating at 95° C. for 5 min in the following buffer (10 mM Tris-HCl PH7.5, 50 mM NaCl, 1 mM EDTA) and cooled to rt. […]

Sequence of PolQ ATPase enzyme (1-894) (O75417 1-894): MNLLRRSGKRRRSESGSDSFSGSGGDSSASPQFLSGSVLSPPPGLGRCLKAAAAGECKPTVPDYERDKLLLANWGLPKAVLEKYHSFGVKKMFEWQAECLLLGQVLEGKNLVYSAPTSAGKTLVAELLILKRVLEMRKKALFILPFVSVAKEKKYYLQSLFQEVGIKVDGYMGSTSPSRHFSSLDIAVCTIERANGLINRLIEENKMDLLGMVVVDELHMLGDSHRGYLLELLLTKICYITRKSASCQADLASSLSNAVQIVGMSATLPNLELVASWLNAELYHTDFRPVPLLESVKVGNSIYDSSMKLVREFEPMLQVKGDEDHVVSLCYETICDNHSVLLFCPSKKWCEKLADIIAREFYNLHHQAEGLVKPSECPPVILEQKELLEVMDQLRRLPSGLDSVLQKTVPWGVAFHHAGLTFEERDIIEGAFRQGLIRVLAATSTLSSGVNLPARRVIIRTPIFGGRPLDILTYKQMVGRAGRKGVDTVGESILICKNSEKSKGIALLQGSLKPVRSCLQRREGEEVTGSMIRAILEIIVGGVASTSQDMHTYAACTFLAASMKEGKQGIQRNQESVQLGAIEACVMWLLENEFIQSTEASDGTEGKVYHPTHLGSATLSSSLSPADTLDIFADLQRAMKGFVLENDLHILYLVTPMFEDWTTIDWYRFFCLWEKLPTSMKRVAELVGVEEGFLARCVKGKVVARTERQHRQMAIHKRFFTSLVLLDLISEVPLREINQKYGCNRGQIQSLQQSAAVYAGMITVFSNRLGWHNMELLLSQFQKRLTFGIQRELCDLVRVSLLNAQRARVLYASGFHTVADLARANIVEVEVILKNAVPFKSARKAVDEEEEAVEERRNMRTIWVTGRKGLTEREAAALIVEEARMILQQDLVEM

Compound	IC50
COc1cnc(Cl)cc1-c1cnccc1C(=O)Nc1nnc(C2C[C@H]2c2ccc(OC(F)F)cc2)s1 (some centres unmarked) [Compound 62]	0.36 nM
COc1cnc(C(F)(F)F)cc1-c1cnccc1C(=O)Nc1nnc(C2C[C@H]2c2ccc(C#N)cc2)s1 (some centres unmarked) [Compound 90]	0.8 nM
CNC(=O)Cn1cc(-c2cc(C(F)(F)F)ccc2OC)c(C(=O)Nc2nnc(C3C[C@H]3c3ccc(C#N)cc3)s2)cc1=O (some centres unmarked) [Compound 92]	0.25 nM
Cc1nnc(Cn2cc(-c3cc(C(F)F)ccc3C)c(C(=O)Nc3ncc(C#CC4CC4)s3)cc2=O)o1 [Compound 116]	< 0.25 nM
COc1cnc(C(F)F)cc1-c1cc(N(C)c2nnc(C)o2)ccc1C(=O)Nc1nnc(C#CC2CC2)s1 [Compound 118, N-(5-(cyclopropylethynyl)-1,3,4-thiadiazol-2-yl)-2-(2-(difluoromethyl)-5-methoxypyridin-4-yl)-4-(methyl (5-methyl-1,3,4-oxadiazol-2-yl)amino)benzamide]	0.99 nM
C#C[C@@H]1CC1c1nnc(NC(=O)c2ccc(N3CCOCC3=O)cc2-c2cc(C(F)F)ncc2OC)s1 (some centres unmarked) [Compound 177]	0.39 nM
C#C[C@H]1CC1c1nnc(NC(=O)c2cnc(CC#N)cc2-c2cc(C(F)F)ncc2OC)s1 (some centres unmarked) [Compound 190]	5.8 nM
Cc1nnc(Cn2cc(-c3cc(C(F)F)ccc3Cl)c(C(=O)Nc3nc(C)c(C#CC4CC4)s3)cc2=O)o1 [Compound 199]	5.8 nM
COc1cnc(C(F)F)cc1-c1cc(N2CCN(C)CC2=O)ccc1C(=O)Nc1ncc(C#CC2CC2)s1 [Compound 217]	1.9 nM
COc1cnc(C(F)F)cc1-c1cc(CC2CCOCC2)ncc1C(=O)Nc1nnc(C#CC2CC2)s1 [Compound 267]	6.4 nM
COc1cnc(Cl)cc1-c1cnccc1C(=O)Nc1nnc(C2C[C@H]2c2ccc(C#N)c(C)c2)s1 (some centres unmarked) [Compound 287]	0.93 nM
COc1cnc(C(F)F)cc1-c1c(C(=O)Nc2nnc(C#CC3CC3)s2)ccc(-c2ccn(C)n2)c1F [Compound 385]	0.87 nM
COc1cnc(C(F)F)cc1-c1nc(-c2nnc(C)o2)ccc1C(=O)Nc1ncc(C#CC2CC2)s1 [Compound 392]	> 100 nM
COc1cnc(C(F)F)cc1-c1cc(-n2cc(C)c(C)cc2=O)ncc1C(=O)Nc1nnc(C#CC2CC2)s1 [Compound 476]	< 0.25 nM
Cn1ccc(C2C=C(c3cc(C(F)(F)F)ncc3Cl)C(C(=O)Nc3ncc(C#CC4CC4)s3)=CC2=O)n1 (centres unmarked) [Compound 479]	7.4 nM
COc1cnc(C(F)(F)F)nc1-c1cc(CC#N)ccc1C(=O)Nc1nnc(C#CC2CC2)s1 [Compound 482]	0.73 nM
COc1cnc(C(F)F)cc1-c1cc(-c2cccn(C)c2=O)ncc1C(=O)Nc1nnc(C#CC2CC2)s1 [Compound 483]	< 0.25 nM
COc1cnc(C(F)F)cc1-c1cc(-c2ccc[nH]c2=O)ncc1C(=O)Nc1nnc(C#CC2CC2)s1 [Compound 484]	0.32 nM
COc1cnc(C(F)F)cc1-c1cc(N2C[C@H](C)OCC2=O)ncc1C(=O)Nc1nnc(C#CC2CC2)s1 [Compound 486]	0.36 nM
COc1cnc(C(F)F)cc1-c1cc(-n2ccc(C)cc2=O)ncc1C(=O)Nc1nnc(C#CC2CCOCC2)s1 [Compound 487]	< 0.25 nM
COc1cnc(C(F)F)cc1-c1cc(-n2ccc(N)cc2=O)ncc1C(=O)Nc1nnc(C#CC2CC2)s1 [Compound 488]	< 0.25 nM

Compound	IC50
COc1cc(C)ncc1-c1cc(-c2cc(C(F)F)ncc2OC)c(C(=O)Nc2nnc(C#CC3CC3)s2)cn1 [Compound 489]	0.4 nM
COc1cnc(C(F)F)cc1-c1cc(-n2ccc(CO)cc2=O)ncc1C(=O)Nc1nnc(C#CC2CC2)s1 [Compound 490]	< 0.25 nM
COc1cnc(C(F)F)cc1-c1cc(-n2cccc(C(C)=O)c2=O)ncc1C(=O)Nc1nnc(C#CC2CC2)s1 [Compound 491]	< 0.25 nM
COc1cnc(C(F)F)cc1-c1cc(-n2ccc(C(N)=O)cc2=O)ncc1C(=O)Nc1nnc(C#CC2CC2)s1 [Compound 492]	< 0.25 nM
COc1cnc(C(F)F)cc1-c1cc(-n2ccc(C#N)cc2=O)ncc1C(=O)Nc1nnc(C#CC2CC2)s1 [Compound 493]	< 0.25 nM
COc1cnc(C(F)F)cc1-c1cc(-n2cccc(C)c2=O)ncc1C(=O)Nc1nnc(C#CC2CCOCC2)s1 [Compound 494]	< 0.25 nM
COc1cnc(C(F)F)cc1-c1cc(-n2ccc(C(=O)O)cc2=O)ncc1C(=O)Nc1nnc(C#CC2CC2)s1 [Compound 495]	0.33 nM
COC(=O)c1ccn(-c2cc(-c3cc(C(F)F)ncc3OC)c(C(=O)Nc3nnc(C#CC4CC4)s3)cn2)c(=O)c1 [Compound 496]	< 0.25 nM
COC(=O)C1CCN(c2cc(-c3cc(C(F)F)ncc3OC)c(C(=O)Nc3nnc(C#CC4CC4)s3)cn2)C(=O)C1 (centres unmarked) [Compound 497]	0.45 nM
COc1cnc(C(F)F)cc1-c1cc(-c2ccc(C)nc2OC)ncc1C(=O)Nc1nnc(C#CC2CC2)s1 [Compound 501]	0.93 nM
COc1cnc(C(F)F)cc1-c1cc(N2C[C@@H](C)OCC2=O)ncc1C(=O)Nc1nnc(C#CC2CC2)s1 [Compound 502]	2.4 nM
[2H]C([2H])([2H])N1CCN(c2cc(-c3cc(C(F)F)ncc3OC)c(C(=O)Nc3nnc(C#CC4CC4)s3)cn2)C(=O)C12CC2 [Compound 503]	< 0.25 nM
COC(=O)N1CCN(c2cc(-c3cc(C(F)F)ncc3OC)c(C(=O)Nc3nnc(C#CC4CC4)s3)cn2)C(=O)C12CC2 [Compound 505]	< 0.25 nM
COc1cnc(C(F)F)cc1-c1cc(-n2ccc(C3CCOCC3)cc2=O)ncc1C(=O)Nc1nnc(C#CC2CC2)s1 [Compound 506]	< 0.25 nM
COc1cnc(C(F)F)cc1-c1cc(Cn2ccccc2=O)ncc1C(=O)Nc1nnc(C#CC2CC2)s1 [Compound 507]	1.5 nM
COc1cnc(C(F)F)cc1-c1cc(N2CCN(CC#N)C3(CC3)C2=O)ncc1C(=O)Nc1nnc(C#CC2CC2)s1 [Compound 508]	1.2 nM
COc1cnc(C(F)F)cc1-c1cc(-n2ccc(B(O)O)cc2=O)ncc1C(=O)Nc1nnc(C#CC2CC2)s1 [Compound 509]	1.7 nM
COc1cnc(C(F)F)cc1-c1cc(N2CCN(C3CC3)C3(CC3)C2=O)ncc1C(=O)Nc1nnc(C#CC2CC2)s1 [Compound 510]	0.92 nM
COc1cnc(C(F)F)cc1-c1cc(-c2ccc(C)cc2)ncc1C(=O)Nc1nnc(C#CC2CC2)s1 [Compound 513]	3.2 nM
COc1cnc(C(F)F)cc1-c1cc(N2CCN(CC(F)(F)F)C3(CC3)C2=O)ncc1C(=O)Nc1nnc(C#CC2CC2)s1 [Compound 515]	2.7 nM
COc1cnc(C(F)F)cc1-c1cc(N2CCN(C(=O)C(C)(C)C)C3(CC3)C2=O)ncc1C(=O)Nc1nnc(C#CC2CC2)s1 [Compound 516]	0.39 nM

Compound	IC50
C#Cc1nnc(NC(=O)c2cnc(-n3ccc(C)cc3=O)cc2-c2cc(C(F)F)ncc2OC)s1 [Compound 518]	1.4 nM
COc1cnc(C(F)F)cc1-c1cc(-c2ccn(C)c(=O)c2)ncc1C(=O)Nc1nnc(C#CC2CC2)s1 [Compound 519]	12 nM
COc1cnc(C(F)F)cc1-c1cc(N2CCN(C=O)C3(CC3)C2=O)ncc1C(=O)Nc1nnc(C#CC2CC2)s1 [Compound 520]	0.27 nM
COc1cnc(C(F)F)cc1-c1cc(N2CCCCS2(=O)=O)ncc1C(=O)Nc1nnc(C#CC2CC2)s1 [Compound 521]	15 nM
COc1cnc(C(F)F)cc1-c1cc(-n2ccc(N3CCOCC3)cc2=O)ncc1C(=O)Nc1nnc(C#CC2CC2)s1 [Compound 522]	< 0.25 nM
COc1cnc(C(F)F)cc1-c1cc(-c2ccc(=O)n(C)c2)ncc1C(=O)Nc1nnc(C#CC2CC2)s1 [Compound 524]	2.3 nM
COc1cncc(-c2cc(-c3cc(C(F)F)ncc3OC)c(C(=O)Nc3nnc(C#CC4CC4)s3)cn2)c1 [Compound 525]	1.3 nM
COc1cnc(C(F)F)cc1-c1cc(Oc2cc(N3CCOCC3)ccn2)ncc1C(=O)Nc1nnc(C#CC2CC2)s1 [Compound 526]	1.5 nM
COc1cnc(C(F)F)cc1-c1cc(C#CC(C)(C)N2CCOCC2)ncc1C(=O)Nc1nnc(C#CC2CC2)s1 [Compound 528]	0.44 nM
COc1cnc(C(F)F)cc1-c1cc(C#CCN2C[C@@H](C)O[C@@H](C)C2)ncc1C(=O)Nc1nnc(C#CC2CC2)s1 [Compound 529]	0.59 nM
COc1cnc(C(F)F)cc1-c1cc(-n2ccncc2=O)ncc1C(=O)Nc1nnc(C#CC2CC2)s1 [Compound 531]	0.27 nM
COc1cnc(C(F)F)cc1-c1cc(-n2ccc(C)cc2=O)ncc1C(=O)Nc1nnc(C2CC2)s1 [Compound 532]	1.7 nM
COc1ncc(-c2cc(-c3cc(C(F)F)ncc3OC)c(C(=O)Nc3nnc(C#CC4CC4)s3)cn2)cn1 [Compound 533]	1.6 nM
COc1cnc(C(F)F)cc1-c1cc(-n2ccc(C)cc2=O)ncc1C(=O)Nc1nnc([C@H]2C[C@@H]2C(F)(F)F)s1 [Compound 534]	0.95 nM
COc1cnc(C(F)F)cc1-c1cc(-n2ccc(N3CCN(C)CC3)cc2=O)ncc1C(=O)Nc1nnc(C#CC2CC2)s1 [Compound 535]	0.73 nM
COc1cnc(C(F)F)cc1-c1cc(-n2ccc(C3CCN(C)CC3)cc2=O)ncc1C(=O)Nc1nnc(C#CC2CC2)s1 [Compound 536]	0.96 nM
COc1cnc(C(F)F)cc1-c1cc(-n2ccc(N(C)C)cc2=O)ncc1C(=O)Nc1nnc(C#CC2CC2)s1 [Compound 537]	0.44 nM
COc1ccc(-c2cc(-c3cc(C(F)F)ncc3OC)c(C(=O)Nc3nnc(C#CC4CC4)s3)cn2)c(OC)n1 [Compound 538]	5.7 nM
COc1cnc(C(F)F)cc1-c1cc(C#CCN2CCN(C)CC2)ncc1C(=O)Nc1nnc(C#CC2CC2)s1 [Compound 540]	1 nM
COc1cnc(C(F)F)cc1-c1cc(C#CCCN2CCOCC2)ncc1C(=O)Nc1nnc(C#CC2CC2)s1 [Compound 541]	0.55 nM
